The record followed here is patent publication US11020395B2, “Cycloalkyl substituted triazole compounds as agonists of the APJ receptor” (AMGEN INC., priority 2016, dated 2021).

One assay deals with heart failure rats. Nature of the assay: Cardiac function with APJ small molecule agonists in the presence of ACE inhibitor captopril in heart failure rats in vivo. Also noted: species or system rat. The conditions noted are these: captopril alone, acute settings. An excerpt:
The interaction between […] (ACE2) and Apelin biology is complicated. To investigate the interaction between the Apelin-APJ and ACE signalling pathways, we examined the improvement in cardiac function with APJ small molecule agonists in the presence of ACE inhibitor captopril in heart failure rats in vivo. […] However, in the presence of an APJ agonist, there was a shift in potency to the left with marked improvement in contractility and ejection fraction without changes in heart rate. These findings provide a new reference for the understanding of the regulation of ACE2 for the renin angiotensin aldosterone system (RAAS), independent of AT1R signaling and offer new potential drug targets for the treatment of diseases such as hypertension and heart failure. This work clearly establishes that combination of an agonist of the APJ receptor with an ARB such as losartan and/or with an ACE inhibitor such as captopril which may play an important role in providing greater efficacy in treating heart failure patients, for example in improving contractility and ejection fraction without changing the heart rate.

For assay [1], the target named is human APJ-AT1R double stable CHO cell line (Homo sapiens (Human), UniProt P35414). The assay can be described thus: IP1 accumulation (TR-FRET) assay with AngII in human APJ-AT1R double stable CHO cell line. The class given is cell-based. The conditions noted are these: in the presence of AngII and APJ small molecule agonists. Here is the method: The function of the inositol phosphate accumulation (IP1) was measured by Time-resolved fluorescence resonance energy (TR-FRET) at 620 nm and 665 nm respectively.
The plate was sealed and incubated for 1 hour.
A general note: In TR-FRET formats the signal depends on donor and acceptor labels being close together.

The next assay has as its target human APJ receptor (Homo sapiens (Human), UniProt P35414). Nature of the assay: [35S]GTPγS binding assay on membranes from CHO cells stably expressing human APJ receptor. The conditions noted are these: [35S]GTPγS SPA, read-out: Activity hAPJ SPA EC50 IP. The class given is biochemical. In short, it runs like this:
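Membranes from CHO cells stably expressing FLAG-tagged human APJ were incubated with [35S]GTPγS in buffer with optimized GDP, MgCl2 and NaCl, 90 min at RT. EC50 values derived by non-linear regression, averaged over several independent experiments.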
(Binding of GTPγS marks nucleotide exchange on a G protein.)

human APJ receptor, sequence (P35414 whole entry): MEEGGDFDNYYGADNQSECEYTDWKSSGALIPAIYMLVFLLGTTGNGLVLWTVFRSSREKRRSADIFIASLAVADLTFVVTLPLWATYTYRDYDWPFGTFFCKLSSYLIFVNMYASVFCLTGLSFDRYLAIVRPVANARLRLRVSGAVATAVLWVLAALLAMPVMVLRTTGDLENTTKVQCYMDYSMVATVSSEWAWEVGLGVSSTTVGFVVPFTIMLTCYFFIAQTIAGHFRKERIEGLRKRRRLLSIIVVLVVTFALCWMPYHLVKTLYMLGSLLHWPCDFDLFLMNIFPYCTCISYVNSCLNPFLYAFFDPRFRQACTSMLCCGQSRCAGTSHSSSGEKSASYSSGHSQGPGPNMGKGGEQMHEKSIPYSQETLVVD
human APJ-AT1R double stable CHO cell line, sequence (P35414 whole entry): as above

With `C[C@H](CS)C(=O)N1CCC[C@H]1C(=O)O` [Captopril, captopril], the “contractility or ejection fraction” value in the assay with heart failure rats was “does not show a marked improvement”. In the case of `CCCCc1nc(Cl)c(CO)n1Cc1ccc(-c2ccccc2-c2nn[nH]n2)cc1` [losartan], in assay [1], the “effect on APJ agonist-induced positive cooperativity” value was “relieved this cooperativity”. For the compound `COc1cccc(OC)c1-n1c(NS(=O)(=O)[C@@H](C)[C@@H](OC(C)C)c2ncc(C)cn2)nnc1[C@H]1C[C@@H](OC)C1` (racemic) [Example 227.0, (1S,2S)-N-(4-(2,6-dimethoxyphenyl)-5-(trans-3-methoxycyclobutyl)-4H-1,2,4-triazol-3-yl)-1-(5-methyl-2-pyrimidinyl)-1-(2-propanyloxy)-2-propanesulfonamide or (1S,2S)-N-(4-(2,6-dimethoxyphenyl)-5-(cis-3-methoxycyclobutyl)-4H-1,2,4-triazol-3-yl)-1-(5-methyl-2-pyrimidinyl)-1-(2-propanyloxy)-2-propanesulfonamide], the EC50 (usually the concentration that produces a half-maximal response) at human APJ receptor stood at 2.7 nM. The same measure, in the same setting: the value for `COc1cccc(OC)c1-n1c(NS(=O)(=O)[C@@H](C)[C@H](OC)c2ncc(Cl)cn2)nnc1[C@H]1C[C@H](F)C1` (single isomer, unassigned) [Example 152.0, (1R,2S)-1-(5-chloropyrimidin-2-yl)-N-(4-(2,6-dimethoxyphenyl)-5-((1r,3S)-3-fluorocyclobutyl)-4H-1,2,4-triazol-3-yl)-1-methoxypropane-2-sulfonamide or (1R,2S)-1-(5-chloropyrimidin-2-yl)-N-(4-(2,6-dimethoxyphenyl)-5-((1s,3R)-3-fluorocyclobutyl)-4H-1,2,4-triazol-3-yl)-1-methoxypropane-2-sulfonamide] was 4.2 nM. Same read-out and setting: the value for `COc1cccc(OC)c1-n1c(NS(=O)(=O)[C@@H](C)[C@H](OC)c2ncc(C)cn2)nnc1[C@H]1C[C@H](Cl)C1` (single isomer, unassigned) [Example 192.0, (1R,2S)-N-(5-((1r,3S)-3-chlorocyclobutyl)-4-(2,6-dimethoxyphenyl)-4H-1,2,4-triazol-3-yl)-1-methoxy-1-(5-methylpyrimidin-2-yl)propane-2-sulfonamide or (1R,2S)-N-(5-((1s,3R)-3-chlorocyclobutyl)-4-(2,6-dimethoxyphenyl)-4H-1,2,4-triazol-3-yl)-1-methoxy-1-(5-methylpyrimidin-2-yl)propane-2-sulfonamide] was 2.9 nM.
